Assay results from the supplement of paper PMC9262897, “Low-cost anti-mycobacterial drug discovery using engineered E. coli” (Nature Communications, 2022).

Tests used:
Assay in all cases: growth (OD600 after 24 h); higher = more growth
[1] = test system: ∆yeeO
Method: (§1)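 E. coli BW25113 ΔaraC (Efflux+) or efflux-pump deletion strains (ΔtolC ΔentC, ΔemrE, ΔmdtI, ΔyeeO, ΔmdtK, ΔmdtM) diluted 1:100 in M9-based medium with a drug dilution series. Growth is read as OD600 after 24 h; 3 biological replicates.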

[2] = test system: Efflux+
Method: as §1

[3] = test system: ∆mdtM
Method: as §1

[4] = test system: ∆mdtI
Method: as §1

[5] = test system: ∆mdtK
Method: as §1

[6] = test system: ∆emrE
Method: as §1

[7] = test system: ∆tolC ∆entC
Method: as §1

N=C(N)c1ccc(OCCCCCOc2ccc(C(=N)N)cc2)cc1 [Pentamidine]
growth
Conditions | [1] | [2] | [3] | [4] | [5] | [6] | [7]
drug 6.25 µM | 0.845 | 0.978 | 0.809 | 1.003 | 0.814 | 0.879 | 0.996
drug 12.5 µM | 0.833 | 0.894 | 0.7967 | 0.936 | 0.77 | 0.8324 | 0.854
drug 25 µM | 0.79 | 0.88 | 0.779 | 0.89493 | 0.68 | 0.826 | 0.804
drug 50 µM | 0.758 | 0.805 | 0.745 | 0.837 | 0.513 | 0.811 | 0.709
drug 100 µM | 0.637 | 0.635 | 0.614 | 0.655 | 0.367 | 0.739 | 0.389
drug 200 µM | 0.34 | 0.337 | 0.502 | 0.352 | 0.212 | 0.615 | 0.0928

CC/C(=C(/CC)c1ccc(O)cc1)c1ccc(O)cc1 [Diethylstilbestrol]
growth
Conditions | [1] | [2] | [3] | [4] | [5] | [6] | [7]
drug 0.5 µM | 0.983 | 0.872 | 0.7859 | 0.863 | 0.717 | 0.993 | 0.995
drug 1.25 µM | 0.991 | 1.04 | 0.8345 | 0.979 | 0.754 | 0.978 | 1.04
drug 2.5 µM | 1.01 | 1.03 | 0.903 | 0.976 | 0.881 | 0.977 | 1.03
drug 5 µM | 1 | 1.07 | 0.956 | 0.9841 | 0.786 | 1.01 | 0.761
drug 10 µM | 1.04 | 1.056 | 0.9842 | 1.02 | 0.84 | 1.06 | 0.0999
drug 20 µM | 1.07 | 1.06 | 1.05 | 0.948 | 0.713 | 1.08 | 0.0484

CN(Cc1cc(Br)cc(Br)c1N)C1CCCCC1 [Bromhexine]
growth
Conditions | [1] | [2] | [3] | [4] | [5] | [6] | [7]
drug 3 µM | 0.897 | 1.027 | 0.825 | 1.04 | 0.772 | 0.992 | 0.894
drug 6.25 µM | 0.881 | 0.989 | 0.819 | 1.01 | 0.792 | 1.08 | 0.989
drug 12.5 µM | 0.881 | 0.974 | 0.805 | 0.992 | 0.762 | 1.06 | 0.94
drug 25 µM | 0.8876 | 0.9831 | 0.8363 | 0.996 | 0.737 | 1.02 | 0.564
drug 50 µM | 0.905 | 1 | 0.8474 | 0.994 | 0.743 | 1.02 | 0.05317
drug 100 µM | 0.917 | 0.998 | 0.8478 | 0.9907 | 0.7706 | 1.04 | 0.0597
